Results: the NIST ThermoML archive (doi:10.1021/je500380x)

Experiment: mn = molality of the nth substance listed, in mol/kg
Conditions: 100 kPa, Liquid; for electrical conductivity: Alternating current cell with electrodes; for viscosity: Falling or rolling sphere viscometry; for mass density: Vibrating tube method

CCC(=O)OCCN1CCNCC1 [2-(piperazin-1-yl)ethyl propionate] + CO
Conditions	electrical conductivity [S/m]	mass density [kg/m3]	viscosity [mPa·s]
293.15 K, m1 = 0.05	0.128	794.44	0.613
293.15 K, m1 = 0.1001	0.211	797.52	0.632
293.15 K, m1 = 0.2006	0.339	803.64	0.675
293.15 K, m1 = 0.3003	0.432	809.65	0.72
293.15 K, m1 = 0.3995	0.506	815.7	0.771
293.15 K, m1 = 0.5005	0.566	821.73	0.828
293.15 K, m1 = 0.6006	0.617	827.94	0.89
293.15 K, m1 = 0.7007	0.657	834.12	0.954
293.15 K, m1 = 0.8007	0.688	840.22	1.033
293.15 K, m1 = 0.9008	0.712	846.35	1.118
293.15 K, m1 = 1.001	0.732	852.36	1.219
293.15 K, m1 = 1.2	0.757	864.62	1.426
293.15 K, m1 = 1.401	0.752	877.59	1.719
293.15 K, m1 = 1.6	0.737	890.02	2.09
293.15 K, m1 = 1.801	0.706	903.1	2.581
293.15 K, m1 = 2	0.656	916.07	3.261
293.15 K, m1 = 2.203	0.605	929.95	4.138
293.15 K, m1 = 2.403	0.542	942.83	5.479
293.15 K, m1 = 2.603	0.479	955.65	7.28
293.15 K, m1 = 2.803	0.409	969.71	9.916
293.15 K, m1 = 3.001	–	982.22	14.36
293.15 K, m1 = 3.006	0.342	–	–
298.15 K, m1 = 0.05	0.132	789.75	0.576
298.15 K, m1 = 0.1001	0.218	792.84	0.592
298.15 K, m1 = 0.2006	0.351	798.96	0.629
298.15 K, m1 = 0.3003	0.448	805.01	0.671
298.15 K, m1 = 0.3995	0.525	811.06	0.716
298.15 K, m1 = 0.5005	0.59	817.14	0.767
298.15 K, m1 = 0.6006	0.644	823.36	0.823
298.15 K, m1 = 0.7007	0.686	829.58	0.881
298.15 K, m1 = 0.8007	0.72	835.68	0.952
298.15 K, m1 = 0.9008	0.748	841.84	1.029
298.15 K, m1 = 1.001	0.77	847.87	1.117
298.15 K, m1 = 1.2	0.794	860.2	1.303
298.15 K, m1 = 1.401	0.797	873.21	1.562
298.15 K, m1 = 1.6	0.784	885.7	1.888
298.15 K, m1 = 1.801	0.755	898.85	2.319
298.15 K, m1 = 2	0.708	911.8	2.909
298.15 K, m1 = 2.203	0.653	925.82	3.661
298.15 K, m1 = 2.403	0.587	938.76	4.801
298.15 K, m1 = 2.603	0.518	951.62	6.312
298.15 K, m1 = 2.803	0.457	964.72	8.495
298.15 K, m1 = 3.001	–	978.3	12.13
298.15 K, m1 = 3.006	0.392	–	–
303.15 K, m1 = 0.05	0.136	785.03	0.542
303.15 K, m1 = 0.1001	0.224	788.13	0.556
303.15 K, m1 = 0.2006	0.362	794.26	0.589
303.15 K, m1 = 0.3003	0.465	800.33	0.627
303.15 K, m1 = 0.3995	0.547	806.4	0.668
303.15 K, m1 = 0.5005	0.615	812.5	0.713
303.15 K, m1 = 0.6006	0.672	818.75	0.764
303.15 K, m1 = 0.7007	0.715	824.99	0.816
303.15 K, m1 = 0.8007	0.756	831.13	0.881
303.15 K, m1 = 0.9008	0.785	837.3	0.95
303.15 K, m1 = 1.001	0.813	843.36	1.028
303.15 K, m1 = 1.2	0.839	855.75	1.194
303.15 K, m1 = 1.401	0.849	868.82	1.425
303.15 K, m1 = 1.6	0.837	881.35	1.713
303.15 K, m1 = 1.801	0.813	894.62	2.093
303.15 K, m1 = 2	0.766	907.8	2.606
303.15 K, m1 = 2.203	0.712	921.66	3.257
303.15 K, m1 = 2.403	0.648	934.65	4.233
303.15 K, m1 = 2.603	0.571	947.56	5.512
303.15 K, m1 = 2.803	0.505	960.73	7.332
303.15 K, m1 = 3.001	–	974.37	10.32
303.15 K, m1 = 3.006	0.439	–	–
308.15 K, m1 = 0.05	0.139	780.29	0.512
308.15 K, m1 = 0.1001	0.232	783.39	0.523
308.15 K, m1 = 0.2006	0.374	789.53	0.554
308.15 K, m1 = 0.3003	0.482	795.62	0.588
308.15 K, m1 = 0.3995	0.566	801.72	0.625
308.15 K, m1 = 0.5005	0.641	807.84	0.665
308.15 K, m1 = 0.6006	0.701	814.12	0.711
308.15 K, m1 = 0.7007	0.748	820.37	0.758
308.15 K, m1 = 0.8007	0.792	826.54	0.817
308.15 K, m1 = 0.9008	0.824	832.74	0.879
308.15 K, m1 = 1.001	0.858	838.83	0.949
308.15 K, m1 = 1.2	0.883	851.28	1.098
308.15 K, m1 = 1.401	0.892	864.42	1.305
308.15 K, m1 = 1.6	0.889	876.97	1.56
308.15 K, m1 = 1.801	0.862	890.31	1.895
308.15 K, m1 = 2	0.818	903.56	2.346
308.15 K, m1 = 2.203	0.766	917.48	2.912
308.15 K, m1 = 2.403	0.703	930.52	3.753
308.15 K, m1 = 2.603	0.626	943.48	4.841
308.15 K, m1 = 2.803	0.559	956.73	6.372
308.15 K, m1 = 3.001	–	970.42	8.863
308.15 K, m1 = 3.006	0.483	–	–
313.15 K, m1 = 0.05	0.142	775.51	0.484
313.15 K, m1 = 0.1001	0.238	778.61	0.494
313.15 K, m1 = 0.2006	0.384	784.77	0.522
313.15 K, m1 = 0.3003	0.498	790.88	0.552
313.15 K, m1 = 0.3995	0.586	797	0.585
313.15 K, m1 = 0.5005	0.661	803.15	0.623
313.15 K, m1 = 0.6006	0.729	809.45	0.664
313.15 K, m1 = 0.7007	0.779	815.73	0.706
313.15 K, m1 = 0.8007	0.823	821.92	0.76
313.15 K, m1 = 0.9008	0.857	828.14	0.815
313.15 K, m1 = 1.001	0.898	834.22	0.878
313.15 K, m1 = 1.2	0.931	846.77	1.012
313.15 K, m1 = 1.401	0.948	859.97	1.197
313.15 K, m1 = 1.6	0.941	872.59	1.425
313.15 K, m1 = 1.801	0.918	885.98	1.723
313.15 K, m1 = 2	0.873	899.28	2.12
313.15 K, m1 = 2.203	0.82	913.27	2.614
313.15 K, m1 = 2.403	0.751	926.52	3.343
313.15 K, m1 = 2.603	0.674	939.34	4.274
313.15 K, m1 = 2.803	0.599	952.7	5.571
313.15 K, m1 = 3.001	–	966.46	7.662
313.15 K, m1 = 3.006	0.534	–	–
318.15 K, m1 = 0.05	0.145	770.7	0.459
318.15 K, m1 = 0.1001	0.243	773.8	0.468
318.15 K, m1 = 0.2006	0.395	779.98	0.493
318.15 K, m1 = 0.3003	0.511	786.11	0.521
318.15 K, m1 = 0.3995	0.604	792.25	0.55
318.15 K, m1 = 0.5005	0.685	798.42	0.584
318.15 K, m1 = 0.6006	0.754	804.74	0.622
318.15 K, m1 = 0.7007	0.806	811.06	0.66
318.15 K, m1 = 0.8007	0.855	817.27	0.708
318.15 K, m1 = 0.9008	0.891	823.51	0.759
318.15 K, m1 = 1.001	0.936	829.66	0.814
318.15 K, m1 = 1.2	0.975	842.24	0.935
318.15 K, m1 = 1.401	0.994	855.48	1.102
318.15 K, m1 = 1.6	0.995	868.17	1.306
318.15 K, m1 = 1.801	0.971	881.62	1.571
318.15 K, m1 = 2	0.932	894.99	1.922
318.15 K, m1 = 2.203	0.874	909.04	2.355
318.15 K, m1 = 2.403	0.809	922.36	2.99
318.15 K, m1 = 2.603	0.724	935.25	3.793
318.15 K, m1 = 2.803	0.656	948.64	4.897
318.15 K, m1 = 3.001	–	962.47	6.668
318.15 K, m1 = 3.006	0.583	–	–
323.15 K, m1 = 0.05	0.148	765.85	0.437
323.15 K, m1 = 0.1001	0.244	768.95	0.445
323.15 K, m1 = 0.2006	0.406	775.15	0.467
323.15 K, m1 = 0.3003	0.529	781.29	0.492
323.15 K, m1 = 0.3995	0.625	787.45	0.519
323.15 K, m1 = 0.5005	0.709	793.64	0.549
323.15 K, m1 = 0.6006	0.782	799.99	0.583
323.15 K, m1 = 0.7007	0.833	806.34	0.617
323.15 K, m1 = 0.8007	0.889	812.57	0.661
323.15 K, m1 = 0.9008	0.927	818.85	0.707
323.15 K, m1 = 1.001	0.976	825.02	0.757
323.15 K, m1 = 1.2	1.017	837.66	0.866
323.15 K, m1 = 1.401	1.042	850.96	1.016
323.15 K, m1 = 1.6	1.045	863.7	1.199
323.15 K, m1 = 1.801	1.032	877.22	1.436
323.15 K, m1 = 2	0.996	890.65	1.748
323.15 K, m1 = 2.203	0.933	904.77	2.13
323.15 K, m1 = 2.403	0.866	918.16	2.685
323.15 K, m1 = 2.603	0.781	931.01	3.381
323.15 K, m1 = 2.803	0.708	944.56	4.325
323.15 K, m1 = 3.001	–	958.45	5.906
323.15 K, m1 = 3.006	0.636	–	–
